From patent US20230069590A1, “CONCENTRATED SODIUM VALPROATE FOR RAPID DELIVERY” (priority 2020, published 2023)
“And” between values parts separate entries of the source, which are not always exact repeats. Equal values may be shown once. Read-outs that look alike come from different tables or passages of the source.

Tests used:
[1] = Further experiments: infusion of 150 mg/kg over 1 hour, hemodynamic effects; format: in vivo; details: 150 mg/kg delivered over 1 hour
[2] = tested on: polytrauma, hemorrhage and TBI; assay: Survival after IO or IV VPA in polytrauma, hemorrhage and TBI (Example 2); format: in vivo, swine; details: 150 mg/kg over 3 hours
Protocol: Animals underwent placement of femoral venous and arterial lines, a pulmonary artery catheter, and open cystostomy for invasive monitoring, hemorrhage and resuscitation. […] The abdomen was then packed, and animal flipped prone in preparation for TBI and hemorrhage. A 12 mm depth TBI was inflicted using a controlled cortical impact device, and the animal was simultaneously hemorrhaged 40% of its estimated blood volume over 20 minutes. At the completion of hemorrhage, the animal was left unresuscitated and in shock for 1 hour to simulate medic response time.
At the end of the shock phase, in order to simulate available resuscitative fluids available in a field care setting, all animals were resuscitated with normal saline via the femoral venous catheter with a standardized volume that was three times the hemorrhaged volume delivered over 1 hour. Animals were randomized to receive either a VPA administered IO (TO group) or administered IV (IV group) or to a control group. […] Placement of the needle was confirmed by aspiration of marrow and subsequent flush of 10 mL normal saline without extravasation. […] Animals were then monitored for another 4 hours to the predetermined end point. […]

histone acetylation = details: 150 mg/kg, at the end of a 3-hour VPA infusion; cited from earlier work
[3] = tested on: TBI by controlled cortical impact; assay: Brain lesion size, TTC staining, controlled for time (Example 1); format: in vivo, swine; details: VPA 150 (150 mg/kg over 3 h); lesion volume divided by time from injury
Description: (§1) The animal was then flipped prone in preparation for TBI and additional hemorrhage. TBI was made by controlled cortical impact (Ref. 21; incorporated by reference in its entirety). A skin flap was raised on the anterior skull to expose the bregma, followed by a 21 mm burr hole on the right side next to the coronal and sagittal sutures to expose the dura. The computer controlled cortical impactor (University of Michigan Innovation Center, Ann Arbor, Mich.) was fired to produce a 10-mm depth injury. A 5-mm burr hole was made on the left for placement of the intracranial pressure (ICP) probe.

[4] = Plasma VPA levels and pharmacokinetics (Example 1); format: in vivo, swine; details: for Clearance / Vd: pig, in vivo, iv; for Vd: read-out: Volume of distribution (Vd); for concentration at 5 h / concentration at 3 h: swine, plasma, intravenous, plasma VPA level; for concentration at 5 h: 5 hours after VPA infusion start
Description: A separate group of sham animals underwent cannulation and line placement without infliction of polytrauma, hemorrhage or TBI for use in subsequent pharmacokinetic (PK) analysis.

lethal models of trauma = details: 300-450 mg/kg; cited from earlier work
[5] = tested on: lethal model of polytrauma, HS and TBI; assay: Hemodynamics (MAP, adverse hemodynamic effects) in polytrauma, HS and TBI model (Example 1)
Description: (§2) Bilateral 5-Fr 11-cm arterial catheters and an 8-Fr 11-cm central venous catheter (Super Sheath, Boston Scientific Corporation, Marlborough, Mass.) were placed by femoral cutdown for arterial pressure monitoring, controlled arterial hemorrhage and central venous normal saline (NS; 0.9% sodium chloride solution) administration. An open cystostomy tube was placed for urine output monitoring. The right external jugular vein was then accessed percutaneously under ultrasound guidance, and a pulmonary artery catheter was placed for monitoring of pulmonary artery pressure and cardiac output.
(§3) Treatment groups are outlined in Table 1. […] In order to simulate prolonged field care (PFC) by a combat medic, three times the hemorrhage volume of NS was delivered centrally through femoral vein catheter over 1 hour using the Masterflex pump. […] To simulate delayed evacuation to definitive care after PFC, autologous packed red blood cells (pRBCs) were transfused 3 hours after the completion of shock phase at a rate of 25 mL/hr. Animals were then monitored for an additional 4 hours to simulate time in a critical care unit, after which animals were euthanized with Euthasol (sodium pentobarbital 100 mg/kg, Virbec, Fort Worth, Tex.) if the animal survived to the end of the experiment. Laboratory parameters were monitored, and electrolyte abnormalities (e.g. hyperkalemia and hypoglycemia) were corrected as needed.

[6] = Pharmacokinetic Analysis (TABLE 1 in Example 1); format: in vivo, swine
[7] = tested on: non-lethal TBI and hemorrhagic shock; details: 150 mg/kg; cited from earlier work
[8] = tested on: lethal model of polytrauma, HS and TBI; assay: Serum AST and CPK in polytrauma, HS and TBI model (Example 1); format: in vivo, swine; details: for Serum aspartate aminotransferase (AST): 3 hours post-treatment
Protocol: as §3

[9] = tested on: lethal model of polytrauma, HS and TBI; assay: Survival in lethal swine model of polytrauma, hemorrhage and TBI (Example 1); format: in vivo
Description: as §2
A 5 cm segment of the left rectus muscle was exposed and crushed using a Kelly clamp to create a soft tissue injury. Femur fracture and liver injury were performed as previously described (Ref. 20; incorporated by reference in its entirety). The mid-femur was exposed and fractured with a 22-gauge captive bolt gun (Ramset Mastershot, Glendale Heights, Ill.) fired point-blank on the femur. A reproducible grade V liver laceration was created with a liver crunch device placed 1 cm lateral to the porta and 7 cm posterior on the dome of the liver. After laceration the liver was allowed to bleed freely for 30 seconds. […] Laparotomy pads were weighed at the end of the experiment to confirm a consistent liver injury (500±50 mL hemorrhage volume).
as §1
Concurrent with TBI, 40% estimated total blood volume was withdrawn over 20 minutes using a Masterflex pump (Cole-Palmer, Vernon Hills, Ill.). The initial 20% blood volume was removed over the first 7 minutes, followed by an additional 20% blood volume at a slower rate over the subsequent 13 minutes. […] Mean arterial pressure (MAP) was maintained between 30-35 mmHg by adjusting the inhaled isoflurane, pausing hemorrhage if MAP persisted <30 mm Hg and giving 50-100 mL fluid boluses of NS.
After completion of hemorrhage, a one-hour shock phase began. This one hour was designed to simulate medic response time from the initial injury. During the shock phase, MAP was again maintained between 30-35 mmHg in order to standardize the effect of hypotension on the injured brain.
as §3

[10] = healthy human subjects, 140 mg/kg given over one hour; cited from earlier work
[11] = Serum VPA after IO versus IV infusion (Example 2); format: in vivo; details: swine, 150 mg/kg over 3 hours
Protocol: At the end of the shock phase, in order to simulate available resuscitative fluids available in a field care setting, all animals were resuscitated with normal saline via the femoral venous catheter with a standardized volume that was three times the hemorrhaged volume delivered over 1 hour. […] Placement of the needle was confirmed by aspiration of marrow and subsequent flush of 10 mL normal saline without extravasation. […] To simulate a delayed transfer to definitive care, 3 hours after the start of normal saline resuscitation, animals were transfused autologous packed red blood cells that were hemorrhaged earlier in the experiment. Animals were then monitored for another 4 hours to the predetermined end point. […] Arterial blood gases were drawn from the femoral arterial line serially throughout the experiment.
GraphPad Prism v8 was used to analyze data (GraphPad Software, San Diego, Calif.).

[12] = 100 mg/kg, VPA 100 (injured, 100 mg/kg over 3 h)
[13] = 150 mg/kg, VPA 150 (injured, 150 mg/kg over 3 h)
[14] = group mean of 5 VPA-treated animals
[15] = individual VPA-treated animals 1-5, dose and regimen not given

CCCC(CCC)C(=O)O [VPA, valproic acid]
adverse hemodynamic effects [1]: does not cause adverse hemodynamic effects | survival to the end of the experiment ([2]; IO group): 100% | survival to the end of the experiment ([2]; IV group): 100% | histone acetylation (histone acetylation): significant increase in histone acetylation | brain lesion size controlled for time [3]: 4.1 mm^3/min | Clearance ([4]; 100 mg/kg, 100 mg/kg over 2 h (injured)): 91.7 mL/min | Clearance [4, 12]: 68.3 mL/min | Vd [4, 12]: 16.1 ± 3.3 L | Vd ([4]; 150 mg/kg, Sham VPA (uninjured, 150 mg/kg over 3 h)): 12.1 ± 6 L | Clearance [4, 13]: 102 mL/min | Vd [4, 13]: 24.2 ± 3.8 L | concentration at 5 h ([4]; 100 mg/kg, VPA 100 over 2 h (injured)): 74 µg/mL | concentration at 3 h ([4]; 100 mg/kg, VPA 100 over 2 h (injured), three hours after start of infusion): 115 µg/mL | concentration at 3 h ([4]; 150 mg/kg, Sham VPA (uninjured, 150 mg/kg over 3 h), three hours after start of infusion (end of infusion)): 291 µg/mL | concentration at 5 h ([4]; 150 mg/kg, VPA 150 (injured)): 114 µg/mL | concentration at 3 h ([4]; 150 mg/kg, VPA 150 (injured, 150 mg/kg over 3 h), three hours after start of infusion (end of infusion)): 175 µg/mL | survival (lethal models of trauma): survival benefit | adverse hemodynamic effects ([5]; 100 mg/kg over 2 hours): without causing any adverse hemodynamic effects | adverse hemodynamic effects ([5]; 150 mg/kg over 3 hours): without causing any adverse hemodynamic effects | mean arterial pressure (MAP) after the treatment ([5]; VPA 150 (150 mg/kg over 3 hours) versus other groups): tended to have a higher MAP | Area Under Curve [6, 14]: 616 µg·h/mL | Maximum Concentration [6, 14]: 145 mg/L | Area Under Curve [6, 15]: 431.4 µg·h/mL and 827.6 µg·h/mL and 635.2 µg·h/mL and 521.1 µg·h/mL and 663.7 µg·h/mL | Clearance [6, 15]: 17.4 L/h and 7.43 L/h and 9.44 L/h and 13.2 L/h and 10.9 L/h | Half-life [6, 15]: 1.85 h and 1.65 h and 1.58 h | Maximum Concentration [6, 15]: 98.12 mg/L and 199.3 mg/L and 142.8 mg/L and 124.5 mg/L | Clearance ([6]; pig, in vivo, 150 mg/kg, group mean of 5 VPA-treated animals, read-out: Clearance (converted)): 11.2 L/h | Half-life ([6]; pig, in vivo, 150 mg/kg, group mean of 5 VPA-treated animals, read-out: Half-life (converted)): 1.7 h | Half-life ([6]; pig, in vivo, 150 mg/kg, individual VPA-treated animals 1-5, dose and regimen not given, read-out: Half-life (converted)): 1.81 h | brain lesion size and neurologic recovery [7]: attenuating brain lesion size and improving neurologic recovery | creatine phosphokinase (CPK), group mean ([8]; VPA 100 (100 mg/kg over 3 h)): 1581±321 | Serum aspartate aminotransferase (AST) ([8]; VPA 100 (100 mg/kg over 3 h)): 95±29 | creatine phosphokinase (CPK), group mean ([8]; VPA 100 over 2 h): 927±233 | Serum aspartate aminotransferase (AST) ([8]; VPA 100 over 2 h): 101±22 | creatine phosphokinase (CPK), group mean ([8]; VPA 150 (150 mg/kg over 3 h)): 2428±1314 | Serum aspartate aminotransferase (AST) ([8]; VPA 150 (150 mg/kg over 3 h)): 177±95 | survival ([9]; 100 mg/kg over 2 hours (faster rate of infusion)): improved survival | survival compared to NS resuscitation ([9]; 100 mg/kg over 3 hours): did not | survival compared to NS resuscitation ([9]; 150 mg/kg over 3 hours): significantly improved survival | survival ([9]; VPA 100: 100 mg/kg IV over 3 hours with NS resuscitation): 0% | survival ([9]; VPA 100 over 2 h: 100 mg/kg IV over 2 hours with NS resuscitation): 67% | survival ([9]; VPA 150: 150 mg/kg IV over 3 hours with NS resuscitation, survival to end of experiment): 83% | peak plasma level [10]: 1271 µg/mL | AUC ([11]; IV group): 294 to 356 µg·h/mL | AUC ([11]; other: intraosseous (IO needle in the left humeral head), IO group): 301 to 470 µg·h/mL
